Key:
Format in all cases: biochemical
ST6Gal 1 = target: T1, ST6Gal 1 (Homo sapiens, UniProt P15907); test: Sialyltransferase activity of ST6Gal 1 assayed with CD73; conditions: for specific activity of ST6Gal 1 against acceptor: 1 mM lactosamine or 4 mM lactose as acceptor, 1 mM CMP-NeuAc, 0.1 μg CD73
T1 construct: purchased R&D Systems
T1 sequence (P15907 1-406): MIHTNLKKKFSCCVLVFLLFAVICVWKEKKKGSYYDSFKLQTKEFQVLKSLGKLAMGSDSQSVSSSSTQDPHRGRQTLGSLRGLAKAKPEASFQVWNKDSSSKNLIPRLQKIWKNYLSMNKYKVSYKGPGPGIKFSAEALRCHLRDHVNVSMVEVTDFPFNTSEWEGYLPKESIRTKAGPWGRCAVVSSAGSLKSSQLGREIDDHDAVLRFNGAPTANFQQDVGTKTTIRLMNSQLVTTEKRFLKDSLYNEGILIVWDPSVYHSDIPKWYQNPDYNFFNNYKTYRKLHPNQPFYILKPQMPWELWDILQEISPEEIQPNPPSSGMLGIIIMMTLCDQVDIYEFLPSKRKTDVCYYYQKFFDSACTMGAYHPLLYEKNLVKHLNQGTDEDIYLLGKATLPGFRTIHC
Text: (§1) The GDP-Fucose, UDP-Glucose, CMP-NeuAc, CMP, UDP and GDP used in the following experiments were obtained from Sigma-Aldrich (St Louis, Mo.). The recombinant human Fut7, ST6Gal1, CD73, CD39L3, non-specific alkaline phosphatase TNAP, recombinant Clostridium Difficile toxin B (TcdB) containing the glycosyltransferase domain and Malachite Green Phosphate Detection Kit were obtained from R&D Systems (Minneapolis, Minn.). The 3′-Sialyl-N-acetyllactosamine was obtained from V-LABS, Inc (Convington, La.). Unless otherwise specified, each glycosyltransferase reaction was performed in 50 μL of a buffer of 25 mM Tris, 150 mM NaCl, 5 mM MgCl2 and 5 mM MnCl2, at pH 7.5 in a 96-well plate at room temperature for 20 minutes. To determine kinetic parameters of each glycosyltransferase, multiple reactions with varied amounts of either glycosyltransferase or substrates were preceded simultaneously in the presence of fixed amounts of all other components, including a phosphatase. A well containing all components except glycosyltransferase served as a blank control for each example. The reactions were stopped by adding 30 μL of Malachite Reagent A and 100 μL of water to each well. The color was developed by adding 30 μL of Malachite Reagent B to each well followed by gently tapping on the edge and incubation for 30 minutes. The plate was then read at 620 nm with a multi-well plate reader.
Sialic acid is negatively charged under normal pH conditions, making sialyltransferases more difficult to assay than other glycosyltransferases. Because both the donor and product are likely negatively charged, separating them by common ion exchange chromatography separation is challenging. In this experiment, ST6Gal 1, a sialyltransferase, was assayed using 0.1 μg CD73 in a 96-well plate. First, enzyme curves were obtained with either 1 mM lactosamine or 4 mM lactose as the acceptor in the presence of 1 mM CMP-NeuAc. The results are shown in FIG. 7, and the specific activities against lactosamine and lactose were determined to be 458 and 41 pmol/min/μg respectively, confirming that the enzyme strongly favors lactosamine structure. The apparent Km and Vmax were determined for one substrate while fixing the other by fitting the data to KaleidaGraph 4 program.

CD73 = target: T2, CD73 (Homo sapiens, UniProt P21589); test: Phosphate release from CMP by CD73, malachite green detection; conditions: 0.1 μg CD73, up to 10 nmol nucleotide, 15 minutes, room temperature
T2 construct: purchased R&D Systems
T2 sequence (P21589 27-549): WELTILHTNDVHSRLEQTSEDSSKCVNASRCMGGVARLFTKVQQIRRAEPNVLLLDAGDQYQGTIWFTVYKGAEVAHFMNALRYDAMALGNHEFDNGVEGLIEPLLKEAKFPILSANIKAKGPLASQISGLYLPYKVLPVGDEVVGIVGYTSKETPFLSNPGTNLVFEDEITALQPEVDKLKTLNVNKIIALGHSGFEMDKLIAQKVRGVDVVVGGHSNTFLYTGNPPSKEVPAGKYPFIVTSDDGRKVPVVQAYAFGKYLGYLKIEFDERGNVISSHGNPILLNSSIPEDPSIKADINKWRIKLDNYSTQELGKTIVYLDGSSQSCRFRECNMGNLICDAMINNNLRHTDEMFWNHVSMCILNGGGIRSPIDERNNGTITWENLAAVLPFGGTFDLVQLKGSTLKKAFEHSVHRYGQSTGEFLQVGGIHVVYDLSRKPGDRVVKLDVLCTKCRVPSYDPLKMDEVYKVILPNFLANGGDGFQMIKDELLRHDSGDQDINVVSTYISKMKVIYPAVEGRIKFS
Text: as §1, with “The reactions were stopped by adding 30 μL of Malachite Reagent A and 100 μL of water to each well. The color was developed by adding 30 μL of Malachite Reagent B to each well followed by gently tapping on the edge and incubation for 30 minutes.” left out
(§2) UDP, GDP and CMP are common donors in glycosyltransferase reactions. […] In FIG. 4C, it can be seen that TNAP, at 0.1 μg level, could only quantitatively release phosphate up to 2 nmol of nucleotide input. […]

TNAP = target: T3, TNAP (Homo sapiens, UniProt P05186); test: Phosphate release from UDP, GDP and CMP by TNAP, malachite green detection; conditions: 1 μg TNAP, up to 10 nmol nucleotide
T3 construct: purchased R&D Systems
T3 sequence (P05186 18-501): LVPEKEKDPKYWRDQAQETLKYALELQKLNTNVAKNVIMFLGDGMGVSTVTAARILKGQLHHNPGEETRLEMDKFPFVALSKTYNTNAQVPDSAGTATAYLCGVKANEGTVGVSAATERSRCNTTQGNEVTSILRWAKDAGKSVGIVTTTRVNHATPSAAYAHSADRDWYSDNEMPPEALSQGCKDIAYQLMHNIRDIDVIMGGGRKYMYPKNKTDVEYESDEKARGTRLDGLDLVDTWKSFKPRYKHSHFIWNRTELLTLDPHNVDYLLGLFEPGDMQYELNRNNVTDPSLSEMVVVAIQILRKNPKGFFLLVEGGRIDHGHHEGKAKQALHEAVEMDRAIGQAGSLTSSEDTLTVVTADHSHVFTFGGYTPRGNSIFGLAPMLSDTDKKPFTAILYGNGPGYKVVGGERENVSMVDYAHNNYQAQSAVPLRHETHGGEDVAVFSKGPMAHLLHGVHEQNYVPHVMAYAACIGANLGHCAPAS
Text: as §1, with “The reactions were stopped by adding 30 μL of Malachite Reagent A and 100 μL of water to each well. The color was developed by adding 30 μL of Malachite Reagent B to each well followed by gently tapping on the edge and incubation for 30 minutes.” left out
as §2

CD39L3 = target: T4, CD39L3 (Homo sapiens, UniProt O75355); test: Phosphate release from UDP and GDP by CD39L3, malachite green detection; conditions: 0.1 μg CD39L3, up to 10 nmol nucleotide, 15 minutes, room temperature
T4 construct: purchased R&D Systems
T4 sequence (O75355 1-529): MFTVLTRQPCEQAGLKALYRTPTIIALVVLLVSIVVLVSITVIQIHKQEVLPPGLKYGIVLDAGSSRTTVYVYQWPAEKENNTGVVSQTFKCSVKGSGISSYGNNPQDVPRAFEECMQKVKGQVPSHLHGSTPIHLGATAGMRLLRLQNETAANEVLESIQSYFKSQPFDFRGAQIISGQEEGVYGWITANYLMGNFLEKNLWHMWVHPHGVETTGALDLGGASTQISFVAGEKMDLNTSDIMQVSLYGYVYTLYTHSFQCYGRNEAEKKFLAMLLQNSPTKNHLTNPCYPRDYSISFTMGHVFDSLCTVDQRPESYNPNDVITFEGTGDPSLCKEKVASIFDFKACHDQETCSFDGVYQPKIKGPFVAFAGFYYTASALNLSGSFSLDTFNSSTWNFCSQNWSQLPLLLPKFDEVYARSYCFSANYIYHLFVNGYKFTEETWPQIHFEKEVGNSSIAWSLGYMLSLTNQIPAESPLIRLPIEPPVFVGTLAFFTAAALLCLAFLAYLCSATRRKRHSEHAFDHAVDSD
Text: as §1, with “The reactions were stopped by adding 30 μL of Malachite Reagent A and 100 μL of water to each well. The color was developed by adding 30 μL of Malachite Reagent B to each well followed by gently tapping on the edge and incubation for 30 minutes.” left out
as §2

Structure (SMILES) | phosphate released from nucleotide by TNAP (TNAP) | phosphate released from nucleotide by CD39L3 (CD39L3) | specific activity of ST6Gal 1 against acceptor (ST6Gal 1) [pmol/min/µg] | other results
CC(=O)N[C@H]1[C@H]([C@H](O)[C@H](O)CO)O[C@](OP(=O)(O)OC[C@H]2O[C@@H](n3ccc(N)nc3=O)[C@H](O)[C@@H]2O)(C(=O)O)C[C@@H]1O [CMP-NeuAc, CMP-N-Acetylneuraminic acid] | – | – | – | apparent Vmax (ST6Gal 1; donor varied, lactosamine fixed at 1 mM): 710 ± 16 pmol/min/µg; Km (ST6Gal 1; donor varied, lactosamine fixed at 1 mM, read-out: apparent Km): 530 ± 40 µM
Nc1ccn([C@@H]2O[C@H](COP(=O)(O)O)[C@@H](O)[C@H]2O)c(=O)n1 [CMP] | – | – | – | dephosphorylation of nucleotide by CD73 (CD73): completely
Nc1nc2c(ncn2[C@@H]2O[C@H](COP(=O)(O)OP(=O)(O)O)[C@@H](O)[C@H]2O)c(=O)[nH]1 [GDP] | about two | one | – | –
O=c1ccn([C@@H]2O[C@H](COP(=O)(O)OP(=O)(O)O)[C@@H](O)[C@H]2O)c(=O)[nH]1 [UDP] | about two | one | – | –
N[C@H]1C(O)O[C@H](CO)[C@@H](O[C@@H]2O[C@H](CO)[C@H](O)[C@H](O)[C@H]2O)[C@@H]1O (stereo partly drawn) [lactosamine] | – | – | 458 | –
OC[C@H]1O[C@@H](O[C@H]2[C@H](O)[C@@H](O)C(O)O[C@@H]2CO)[C@H](O)[C@@H](O)[C@H]1O (stereo partly drawn) [lactose] | – | – | 41 | –
